Laboratory results: patent US20080227688A1, “Inhibition of viral replication” (priority 2007, published 2008)

Test system: reovirus
Format: cell-based, Dearing strain of reovirus serotype 3

SMILES: C[C@H](NC(=O)[C@H](Cc1ccccc1)NC(=O)OCc1ccccc1)C(=O)CF [Z-FA-FMK, N-benzyloxycarbonyl-Phe-Ala-fluoromethylketone]
- cure of persistent reovirus infection (western blot, reovirus antiserum): cured persistently infected cells
